Starred links: 1 amine or outer side, 2 acyl side, 3 side chain; linkers in the order of their positions; H or OH if unused. Positions of bridges follow the written chain, without caps; N, C: chain ends. Non-standard residues stand in square brackets, D forms with d. Residues, ends and D or L forms follow the SMILES beside them. *: point of attachment. hTyr(3S-OH,4S-OH,3'-OSO3H) = N[C@H](C(=O)O)[C@H](O)[C@@H](O)c1ccc(O)c(OS(=O)(=O)O)c1; Orn(4R-OH,5R-OH) = O=C([C@H](C[C@@H](O)[C@@H](O)N[*:3])N[*:1])[*:2]; Pro(3S-OH,4S-Me) = C[C@H]1CN[C@H](C(=O)O)[C@H]1O; X1 = CCCCCOc1ccc(-c2cc(-c3ccc(C(=O)*)cc3)no2)cc1; Gln(3R-OH) = NC(=O)C[C@@H](O)[C@H](N)C(=O)O; Hyp = O=C(O)[C@@H]1C[C@@H](O)CN1
Test system: Human Cardiac Microvascular Endothelial Cells (HCMEC)
Experiment: Oxygen and glucose deprivation followed by replenishment, cell survival (calcein AM), HCMEC
Assay type: cell-based
Experimental: Anidulafungin and micafungin were tested on Human Renal Glomerular Endothelial Cells (HRGEC, Innoprot P10665), on Human Renal Proximal Tubular Epithelial Cells (HRPTEpiC, Innoprot P10662), on Human Astrocytes (HA, caltag SC-1800), on Human Cardiac Microvascular Endothelial Cells (HCMEC, Caltag SC-6000), on Human Hepatic Sinusoidal Endothelial Cells (HHSEC, Caltag SC-5000), on Rat Primary Kidney Glomerular Endothelial cells (Cellbiologics, RN-6014G) and on Bovine Brain Microvascular Endothelial Cells (BBMEC, Caltag SC-B100).
In a first phase, these isolated, purified and cryopreserved cells are thawed and multiplied according to the supplier's recommendations in T75 or T175 flasks pre-coated with 2 μg of fibronectin/[…] (CORNING) for HRGEC, HCMEC, HHSEC and BBMEC, or 2 μg poly-L-lysin/cm^2 (Caltag SC-0403) for HRPTEpiC and HA, or 15 mL/flask 175 cm^2 gelatin-based solution (Cellbiologics) in the presence of endothelial cell supplemented growth medium ECM (P60104, INNOPROT, Caltag, SC-1001) for HRGEC, HCMEC, HHSEC, RPKGEC or BBMEC, or astrocyte cell supplemented growth medium AM (Caltag SC-1801) for HA or epithelial cell supplemented growth medium EpiCM (P60106, INNOPROT) for HRPTEpiC, at 37° C. under 5% CO2 and saturated humidity until their confluency. They are then harvested by trypsinization according to the method described by the supplier for exactly 5 minutes and then reseeded in new flasks a maximum of three times.
To carry out the oxygen and glucose deprivation test followed by their replenishment, the cells will be seeded in 96-well black plates with transparent flat bottom (GREINER). Once a sufficient number of cells has been obtained to allow seeding of 2000 to 15000 cells per well of 96-well plates depending on the cell type, the cells are seeded in these 96-well plates previously coated with an extracellular matrix as listed above for the flasks. The cells are cultured for 5 to 8 days according to the cell type, in the presence of the same growth medium as in the flask as described above except for HRGEC and HRPTEpiC for which DMEM (DUTSCHER) with 1 g/L of supplemented glucose is used, at 37° C. under 5% CO2 and saturated humidity to obtain confluency.
On the first day of oxygen and glucose deprivation, (5th, 6th, 7th or 8th day of culture), the culture conditions are drastically changed. The medium of all plates is removed and replaced by DMEM (DUTSCHER) medium without glucose and supplemented only with 1% penicillin-streptomycin (DUTSCHER). Anidulafungin or micafungin dissolved in dimethyl sulfoxide (DMSO) is then added to each well at the desired concentration, resulting in a maximum of 1% DMSO, and the plates are placed under hypoxia at <1% 02 and 5% CO2 at 37° C. for 24 hours of culture. Each compound was tested in a concentration range.
After 24 hours, the growth medium is changed and replaced by a richer medium, DMEM (DUTSCHER) at 1 g/L glucose and 2% FBS (INNOPROT) and 1% penicillin-streptomycin (DUTSCHER). These media will have been pre-equilibrated at 37° C. in advance. The cells are then returned to culture at 37° C. under 20% 02 and 5% CO2 for 22h.
After 22 hours of reoxygenation, the potential protective effect of anidulafungin or micafungin is measured by a cell viability test using calcein AM (CORNING), which is a dye substrate. The calcein AM can easily cross the cell membrane of the viable cells. The AM ester groups mask the part of the molecule that chelates calcium. Once inside the cells, the (non-fluorescent) calcein AM is hydrolyzed to (fluorescent) calcein by endogenous esterases. The resulting calcein molecule binds to calcium inside the cell and remains trapped inside the cell. These molecules emit strong green fluorescence when subjected to […] of a particular wavelength (495 nm). Since dead cells lack esterase activity, only living cells are labelled.
This cell viability test is performed in two steps. […]

CCCCCOc1ccc(-c2cc(-c3ccc(C(=O)N[C@H]4C[C@@H](O)[C@@H](O)NC(=O)[C@@H]5[C@@H](O)[C@@H](C)CN5C(=O)[C@H]([C@H](O)CC(N)=O)NC(=O)[C@H]([C@H](O)[C@@H](O)c5ccc(O)c(OS(=O)(=O)O)c5)NC(=O)[C@@H]5C[C@@H](O)CN5C(=O)[C@H]([C@@H](C)O)NC4=O)cc3)no2)cc1 [Micafungin, {5-[(1S,2S)-2-[(3S,6S,9S,11R,15S,18S,20R,21R,24S,25S,26S)-3-[(1R)-2-carbamoyl-1-hydroxyethyl]-11,20,21,25-tetrahydroxy-15-[(1R)-1-hydroxyethyl]-26-methyl-2,5,8,14,17,23-hexaoxo-18-[(4-{5-[4-(pentyloxy)phenyl]-1,2-oxazol-3-yl}benzene)amido]-1,4,7,13,16,22-hexaazatricyclo[22.3.0.0]heptacosan-6-yl]-1,2-dihydroxyethyl]-2-hydroxyphenyl}oxidanesulfonic acid] (X1-[Orn(4R-OH,5R-OH)]T[Hyp][hTyr(3S-OH,4S-OH,3'-OSO3H)][Gln(3R-OH)][Pro(3S-OH,4S-Me)]; lactam 1-C)
Globalfluo assay 1 ([Micafungin] log μM 0): 4455401 arbitrary units
Globalfluo assay 2 ([Micafungin] log μM 0): 4660836 arbitrary units
Globalfluo assay 3 ([Micafungin] log μM 0): 4639734 arbitrary units
Mean globalfluo ([Micafungin] log μM 0): 4585324 arbitrary units
Survival rate (%) ([Micafungin] log μM 0): −3%
Globalfluo assay 1 ([Micafungin] log μM 0.4771213): 5103911 arbitrary units
Globalfluo assay 2 ([Micafungin] log μM 0.4771213): 5348145 arbitrary units
Globalfluo assay 3 ([Micafungin] log μM 0.4771213): 4886218 arbitrary units
Mean globalfluo ([Micafungin] log μM 0.4771213): 5112758 arbitrary units
Survival rate (%) ([Micafungin] log μM 0.4771213): 0%
Globalfluo assay 1 ([Micafungin] log μM 0.7781513): 5452718 arbitrary units
Globalfluo assay 2 ([Micafungin] log μM 0.7781513): 4992821 arbitrary units
Globalfluo assay 3 ([Micafungin] log μM 0.7781513): 6254079 arbitrary units
Mean globalfluo ([Micafungin] log μM 0.7781513): 5566539 arbitrary units
Survival rate (%) ([Micafungin] log μM 0.7781513): 3%
Globalfluo assay 1 ([Micafungin] log μM 0.90309): 5299685 arbitrary units
Globalfluo assay 2 ([Micafungin] log μM 0.90309): 5787047 arbitrary units
Globalfluo assay 3 ([Micafungin] log μM 0.90309): 5397439 arbitrary units
Mean globalfluo ([Micafungin] log μM 0.90309): 5494724 arbitrary units
Survival rate (%) ([Micafungin] log μM 0.90309): 3%
Globalfluo assay 1 ([Micafungin] log μM 1): 5522064 arbitrary units
Globalfluo assay 2 ([Micafungin] log μM 1): 5305822 arbitrary units
Globalfluo assay 3 ([Micafungin] log μM 1): 6090892 arbitrary units
Mean globalfluo ([Micafungin] log μM 1): 5639593 arbitrary units
Survival rate (%) ([Micafungin] log μM 1): 3%
Globalfluo assay 1 ([Micafungin] log μM 1.079181): 5365305 arbitrary units
Globalfluo assay 2 ([Micafungin] log μM 1.079181): 5914359 arbitrary units
Globalfluo assay 3 ([Micafungin] log μM 1.079181): 4948085 arbitrary units
Mean globalfluo ([Micafungin] log μM 1.079181): 5409250 arbitrary units
Survival rate (%) ([Micafungin] log μM 1.079181): 2%
Globalfluo assay 1 ([Micafungin] log μM 1.176091): 5886475 arbitrary units
Globalfluo assay 2 ([Micafungin] log μM 1.176091): 5800515 arbitrary units
Globalfluo assay 3 ([Micafungin] log μM 1.176091): 6203727 arbitrary units
Mean globalfluo ([Micafungin] log μM 1.176091): 5963572 arbitrary units
Survival rate (%) ([Micafungin] log μM 1.176091): 5%
Globalfluo assay 1 ([Micafungin] log μM 1.30103): 6537106 arbitrary units
Globalfluo assay 2 ([Micafungin] log μM 1.30103): 5661218 arbitrary units
Globalfluo assay 3 ([Micafungin] log μM 1.30103): 6414894 arbitrary units
Mean globalfluo ([Micafungin] log μM 1.30103): 6204406 arbitrary units
Survival rate (%) ([Micafungin] log μM 1.30103): 7%
Globalfluo assay 1 ([Micafungin] log μM 1.477121): 5692141 arbitrary units
Globalfluo assay 2 ([Micafungin] log μM 1.477121): 6434487 arbitrary units
Globalfluo assay 3 ([Micafungin] log μM 1.477121): 7272557 arbitrary units
Mean globalfluo ([Micafungin] log μM 1.477121): 6466395 arbitrary units
Survival rate (%) ([Micafungin] log μM 1.477121): 8%
Globalfluo assay 1 ([Micafungin] log μM −0.5228788): 4445501 arbitrary units
Globalfluo assay 2 ([Micafungin] log μM −0.5228788): 5528681 arbitrary units
Globalfluo assay 3 ([Micafungin] log μM −0.5228788): 4443191 arbitrary units
Mean globalfluo ([Micafungin] log μM −0.5228788): 4805791 arbitrary units
Survival rate (%) ([Micafungin] log μM −0.5228788): −1%
Globalfluo assay 1 ([Micafungin] log μM −1): 4527783 arbitrary units
Globalfluo assay 2 ([Micafungin] log μM −1): 4062591 arbitrary units
Globalfluo assay 3 ([Micafungin] log μM −1): 5413646 arbitrary units
Mean globalfluo ([Micafungin] log μM −1): 4668007 arbitrary units
Survival rate (%) ([Micafungin] log μM −1): −2%
Globalfluo assay 1 ([Micafungin] log μM −2): 4648220 arbitrary units
Globalfluo assay 2 ([Micafungin] log μM −2): 3959524 arbitrary units
Globalfluo assay 3 ([Micafungin] log μM −2): 4368024 arbitrary units
Mean globalfluo ([Micafungin] log μM −2): 4325256 arbitrary units
Survival rate (%) ([Micafungin] log μM −2): −4%
